{
  "source": "paper PMC8984176",
  "about": "“Tuftsin: A Natural Molecule Against SARS-CoV-2 Infection” (Frontiers in Molecular Biosciences, 2022)",
  "key": {"[1]": {"target": "recombinant human NRP1 (Homo sapiens, UniProt O14786)", "sequence (O14786 22-923)": "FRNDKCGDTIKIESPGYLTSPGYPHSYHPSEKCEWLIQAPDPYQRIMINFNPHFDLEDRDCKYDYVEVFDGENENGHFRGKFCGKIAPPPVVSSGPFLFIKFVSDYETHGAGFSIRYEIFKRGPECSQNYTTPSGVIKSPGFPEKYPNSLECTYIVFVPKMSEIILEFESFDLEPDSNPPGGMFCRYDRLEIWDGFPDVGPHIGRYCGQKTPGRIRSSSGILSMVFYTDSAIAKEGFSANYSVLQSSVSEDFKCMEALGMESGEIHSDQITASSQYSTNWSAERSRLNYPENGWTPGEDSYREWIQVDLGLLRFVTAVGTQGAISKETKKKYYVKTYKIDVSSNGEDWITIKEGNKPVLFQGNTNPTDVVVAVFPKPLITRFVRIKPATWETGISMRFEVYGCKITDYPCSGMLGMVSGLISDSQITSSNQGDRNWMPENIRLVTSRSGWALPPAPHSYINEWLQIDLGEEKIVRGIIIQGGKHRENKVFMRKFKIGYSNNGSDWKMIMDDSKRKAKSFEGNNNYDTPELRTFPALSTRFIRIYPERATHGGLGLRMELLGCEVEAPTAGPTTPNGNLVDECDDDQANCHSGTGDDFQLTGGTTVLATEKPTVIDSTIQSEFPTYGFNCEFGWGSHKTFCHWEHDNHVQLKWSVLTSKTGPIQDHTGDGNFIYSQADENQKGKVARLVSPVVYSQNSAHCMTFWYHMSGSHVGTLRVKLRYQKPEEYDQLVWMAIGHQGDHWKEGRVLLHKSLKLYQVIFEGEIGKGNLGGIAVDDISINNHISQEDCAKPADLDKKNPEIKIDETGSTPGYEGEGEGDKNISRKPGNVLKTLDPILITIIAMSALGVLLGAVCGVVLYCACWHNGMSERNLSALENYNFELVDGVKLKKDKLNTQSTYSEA", "experiment": "SPR binding to immobilized NRP1", "conditions": "SPR Biacore T200, CM5 chip, amine coupling, 25°C, 30 µl/min, 1×PBS, 0.05% Tween 20, 5% dimethyl sulfoxide, pH 7.4; steady state affinity model; read-out: K D value", "description": "(§1) Each target was immobilized onto flow cells in a CM5 sensor chip (GE Healthcare) via the amine-coupling method. Briefly, ACE2 and NRP1 were diluted in 10 mM pH 4.5 acetate to 20 μg/ml. Then, the protein solutions were injected individually on the carboxyl-modified sensor surface to form amine bonds. Both ACE2 and NRP1 immobilized levels were approximately 10,000 RU. Binding analyses were carried out at 25°C and a flow rate of 30 µl/min. Tuftsin diluted in running buffer (1×PBS, 0.05% Tween 20 and 5% dimethyl sulfoxide, pH 7.4) was run over each target at gradient concentrations. An empty flow cell without any immobilized protein was used as a deducted reference. The binding curves were analysed using the steady state affinity model supplied with Biacore Evaluation Software (GE Healthcare).\n(§2) The interactions of tuftsin with ACE2 and NRP1 were further evaluated by real-time biomolecular interaction analysis with SPR. The steady state affinity of the binding reaction were determined by injecting different concentrations of tuftsin over recombinant human ACE2 immobilized on one half of the chip surface, and over recombinant human NRP1 immobilized on another half of the chip surface. […] The K D fitting curve of tuftsin with NRP1 is gradually stable when the concentrations of tuftsin increased gradually, conforming to the characteristic of specific binding (Figure 3B)."}, "[2]": {"target": "T1, recombinant human ACE2 (Homo sapiens, UniProt Q9BYF1)", "T1 construct": "purchased Novoprotein, Beijing, China", "T1 sequence (Q9BYF1 18-805)": "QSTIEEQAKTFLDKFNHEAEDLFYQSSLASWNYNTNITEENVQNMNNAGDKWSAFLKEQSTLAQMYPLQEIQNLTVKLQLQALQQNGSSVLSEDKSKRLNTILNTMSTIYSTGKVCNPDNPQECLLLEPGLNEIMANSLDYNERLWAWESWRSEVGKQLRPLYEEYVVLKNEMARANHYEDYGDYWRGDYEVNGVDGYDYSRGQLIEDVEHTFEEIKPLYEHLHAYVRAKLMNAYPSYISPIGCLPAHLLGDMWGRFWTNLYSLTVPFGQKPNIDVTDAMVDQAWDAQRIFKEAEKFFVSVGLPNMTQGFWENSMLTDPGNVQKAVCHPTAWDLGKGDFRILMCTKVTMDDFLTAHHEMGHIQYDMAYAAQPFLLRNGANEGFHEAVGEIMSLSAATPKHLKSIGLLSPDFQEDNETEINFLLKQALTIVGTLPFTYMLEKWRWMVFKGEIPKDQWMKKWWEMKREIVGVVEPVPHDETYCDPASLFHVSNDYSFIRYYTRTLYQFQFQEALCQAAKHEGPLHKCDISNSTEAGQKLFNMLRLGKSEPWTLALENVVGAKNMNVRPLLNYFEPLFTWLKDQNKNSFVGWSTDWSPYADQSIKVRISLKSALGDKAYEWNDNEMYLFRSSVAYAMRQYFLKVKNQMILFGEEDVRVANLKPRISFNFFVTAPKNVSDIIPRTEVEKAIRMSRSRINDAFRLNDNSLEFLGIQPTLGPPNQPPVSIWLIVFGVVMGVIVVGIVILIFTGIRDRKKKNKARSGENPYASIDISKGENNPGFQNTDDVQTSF", "experiment": "SPR binding to immobilized ACE2", "conditions": "SPR Biacore T200, CM5 chip, amine coupling, 25°C, 30 µl/min, 1×PBS, 0.05% Tween 20, 5% dimethyl sulfoxide, pH 7.4; steady state affinity model; read-out: equilibrium dissociation constant (K D)", "description": "as §1, §2"}, "[3]": {"conditions": "in vitro and in vivo; ref Amoscato et al., 1983; Fridkin and Najjar, 1989; Siemion and Kluczyk, 1999; cited from earlier work", "description": "Along with ACE2, neuropilin 1 (NRP1) is another important host factor for SARS-CoV-2 infection ([Daly et al., 2020]). It has been reported that NRP1 facilitates the entry of SARS-CoV-2 into cells in the presence of ACE2 ([Cantuti-Castelvetri et al., 2020]). […] Tuftsin, a natural phagocytosis-stimulating peptide, was found by [Najjar and Nishioka (1970)]. Tuftsin is released from the Fc fragment of IgG by enzyme cleavage of an endocarboxy-peptidase in the spleen and a leukokin ..."}},
  "note": "Peptide text beside a SMILES is read from it.",
  "data": [
    {"smiles": "C[C@@H](O)[C@H](N)C(=O)N[C@@H](CCCCN)C(=O)N1CCC[C@H]1C(=O)N[C@@H](CCCNC(=N)N)C(=O)O", "note": "[tuftsin, L-Threonyl-L-Lysyl-L-Prolyl-L-Arginine] (H-TKPR-OH)", "values": [
      {"measurement": "Kd", "setting": "[1]", "result": 10.7, "unit": "µM"},
      {"measurement": "Kd", "setting": "[2]", "result": 460, "unit": "µM"},
      {"measurement": "toxicity", "setting": "[3]", "result": "low toxicity"}
    ]}
  ]
}
